Some test systems named below: EKVX; BT-549; HCT-15; SF-295; HL-60; HT-29; OVCAR-8; CCRF-CEM; NCI-H460; RPMI-8226; HCC 2998; NCI/ADR-RES; SW-620; A549; SK-OV-3; PC-3; OVCAR-5; NCI-H226; HCT-116; DU-145.
What all share (test): NCI tumour cell line growth inhibition, 48 h

The text below walks through data of ChEMBL document CHEMBL1201862, “PubChem BioAssay data set” (2004).

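All cell lines were grown in 96-well plates and treated with compound for 48 hours. Here, GI50 denotes the concentration required for 50% inhibition of growth.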 Activity calls are given as the source filed them. No stated cut-off is given here; in the data, active = GI50 up to about 1.1 µM and inactive = higher. Bounds are passed on as bounds.

For `C=C(C(=O)O)[C@@H]1C[C@@H](OC(C)=O)[C@]2(C)CC/C=C(\C)CCC[C@H](C)[C@H](O)[C@@H]1O2`, the GI50 was 45.5 µM (inactive) with EKVX; 25.1 µM (inactive) in the assay on BT-549; 41.8 µM in the assay on HCT-15; 24.7 µM (inactive) in the assay on SF-295; 22.3 µM (inactive) in the assay on HL-60; 47.3 µM (inactive) in the assay with HT-29. In addition, the GI50 with OVCAR-8 is 27.5 µM (inactive); with CCRF-CEM, 22.4 µM (inactive); with NCI-H460, 66.4 µM (inactive); with RPMI-8226, 17 µM (inactive); with HCC 2998 it was > 100 µM (inactive); in the assay on NCI/ADR-RES, 33.3 µM (inactive). For the same molecule, the GI50 was 40.1 µM (inactive) in the assay with SW-620; 43 µM (inactive) in the assay with A549; 34.5 µM (inactive) with SK-OV-3; 39.7 µM (inactive) in the assay on PC-3; > 100 µM (inactive) in the assay with OVCAR-5; 14.9 µM (inactive) in the assay on NCI-H226. In addition, the GI50 in the assay on HCT-116 is 52.8 µM (inactive); in the assay on DU-145, 83.9 µM (inactive).

`CC(=O)NNc1nc(C)c(C(=O)NNC(=O)C(=O)Nc2nc3ccc([N+](=O)[O-])cc3s2)s1`: the GI50 is 30.7 µM (inactive) with EKVX; 45.8 µM (inactive) in the assay on BT-549; greater than 68.1 µM with HCT-15; 60.8 µM (inactive) in the assay with SF-295; 36.8 µM (inactive) with HL-60; 54.7 µM (inactive) in the assay with HT-29. Further, the GI50 in the assay on OVCAR-8 was 52.7 µM (inactive); with CCRF-CEM, 22 µM (inactive); in the assay with NCI-H460 it was 49 µM (inactive); in the assay with RPMI-8226 it was 30.5 µM (inactive); in the assay on HCC 2998, 42.1 µM (inactive); in the assay with NCI/ADR-RES, 53.5 µM (inactive). The GI50 is > 65.9 µM (inactive) with SW-620; 67.1 µM (inactive) in the assay with A549; 64.4 µM (inactive) in the assay with SK-OV-3; 26.9 µM (inactive) with PC-3; 82.8 µM (inactive) with OVCAR-5; 80 µM (inactive) in the assay on NCI-H226. Also, the figures for the GI50 in the assay with HCT-116 and in the assay on DU-145 were > 62.5 µM (inactive) and 70.1 µM (inactive), respectively.

Regarding `Cc1cc(S(=O)(=O)NC2=Nc3ccccc3C(c3ccccc3)N2)c(S)cc1Cl` (stereo not given), the GI50 is > 100 µM (inactive) with EKVX; > 100 µM (inactive) in the assay on BT-549; 59.3 µM in the assay on HCT-15; 31.5 µM (inactive) with SF-295; > 100 µM (inactive) with HL-60; > 100 µM (inactive) with HT-29. In addition, the GI50 in the assay with OVCAR-8 is > 100 µM (inactive); in the assay with CCRF-CEM it was 32.6 µM (inactive); with NCI-H460 it was 12.9 µM (inactive); in the assay on RPMI-8226, 63.7 µM (inactive); in the assay on HCC 2998, > 100 µM (inactive); with NCI/ADR-RES, > 100 µM (inactive). Besides, the GI50 with SW-620 was > 100 µM (inactive); in the assay on A549, 18.2 µM (inactive); in the assay on SK-OV-3 it was > 100 µM (inactive); in the assay on PC-3, 16.4 µM (inactive); in the assay with OVCAR-5 it was > 100 µM (inactive); in the assay on NCI-H226 it was 17.4 µM (inactive). Further, the figures for the GI50 with HCT-116 and in the assay on DU-145 were 7.13 µM (inactive) and > 100 µM (inactive), respectively.

As for `COc1ccc(C#CC(=O)O)c(OC)c1`, the GI50 in the assay on EKVX was > 100 µM (inactive); with BT-549, > 100 µM (inactive); with HCT-15, greater than 100 µM; with SF-295, > 100 µM (inactive); in the assay on HL-60 it was > 100 µM (inactive); in the assay with HT-29, > 100 µM (inactive). For the same molecule, the GI50 in the assay with OVCAR-8, with CCRF-CEM, with NCI-H460, with RPMI-8226, with HCC 2998 and in the assay with NCI/ADR-RES was > 100 µM (inactive) throughout. The GI50 in the assay on SW-620, in the assay with A549, in the assay on SK-OV-3, with PC-3, with OVCAR-5 and in the assay on NCI-H226 was > 100 µM (inactive) in each case. For the same molecule, the GI50 in the assay on HCT-116 and with DU-145 was > 100 µM (inactive) in each case.

`COc1cc2c(cc1OC)C1(c3ccccc3)CN(C2)Cc2cc(OC)c(OC)cc21`: the GI50 with EKVX is 55.5 µM (inactive); in the assay with BT-549 it was 29.8 µM (inactive); with HCT-15 it was 24.3 µM; in the assay with SF-295 it was 32.6 µM (inactive); in the assay with HL-60, 19.3 µM (inactive); in the assay on HT-29, 29 µM (inactive). Further, the GI50 in the assay on OVCAR-8 was 40.6 µM (inactive); in the assay on CCRF-CEM it was 15.6 µM (inactive); with NCI-H460, 30.2 µM (inactive); with RPMI-8226 it was 26 µM (inactive); in the assay on HCC 2998, 21.8 µM (inactive); in the assay with NCI/ADR-RES, 25.4 µM (inactive). The GI50 with SW-620 was 33.6 µM (inactive); in the assay with A549, 46.3 µM (inactive); with SK-OV-3, 45.8 µM (inactive); in the assay with PC-3, 31.3 µM (inactive); in the assay with OVCAR-5, 35.6 µM (inactive); with NCI-H226, 26.7 µM (inactive). In addition, the GI50 in the assay on HCT-116 was 24.9 µM (inactive); in the assay on DU-145, 33.7 µM (inactive).

Consider `Cc1nc2sc(CCl)nn2c(=O)c1Cl`, for which the GI50 with EKVX is 11.1 µM (inactive); in the assay on BT-549, 2.73 µM (inactive); in the assay with HCT-15 it was 11.5 µM; with SF-295 it was 16.6 µM (inactive); in the assay on HL-60, 13.1 µM (inactive); in the assay on HT-29, 12.9 µM (inactive). Besides, the GI50 was 14 µM (inactive) with OVCAR-8; 3.61 µM (inactive) in the assay on CCRF-CEM; 10.6 µM (inactive) in the assay with NCI-H460; 5.62 µM (inactive) with RPMI-8226; 22 µM (inactive) with HCC 2998; 18.8 µM (inactive) with NCI/ADR-RES. Further, the GI50 in the assay with SW-620 was 10.4 µM (inactive); in the assay with A549 it was 15.1 µM (inactive); in the assay on SK-OV-3, 14.6 µM (inactive); in the assay with PC-3 it was 12.3 µM (inactive); with OVCAR-5, 15.1 µM (inactive); in the assay with NCI-H226, 14.9 µM (inactive). Besides, the results for the GI50 with HCT-116 and in the assay with DU-145 were 13.4 µM (inactive) and 16.1 µM (inactive), respectively.

With `COc1ccc(-n2nnc3c(C#N)c(-c4ccccc4)c(C)n3c2=O)cc1`, the GI50 in the assay on EKVX was 62.2 µM (inactive); in the assay on BT-549, > 100 µM (inactive); in the assay on HCT-15 it was 31.4 µM; in the assay on SF-295, 54.6 µM (inactive); in the assay with HL-60 it was 3.69 µM (inactive); with HT-29, 43.9 µM (inactive). The GI50 with OVCAR-8 is 27.4 µM (inactive); in the assay with CCRF-CEM, 8.39 µM (inactive); in the assay with NCI-H460 it was 51.4 µM (inactive); with RPMI-8226, 26.1 µM (inactive); in the assay on HCC 2998, 72.6 µM (inactive); in the assay with NCI/ADR-RES it was 66.2 µM (inactive). The GI50 in the assay with SW-620 is 27.2 µM (inactive); in the assay on A549, > 100 µM (inactive); in the assay with SK-OV-3, > 100 µM (inactive); in the assay with PC-3, 29.2 µM (inactive); with OVCAR-5, > 100 µM (inactive); with NCI-H226 it was 85.1 µM (inactive). Also, the results for the GI50 in the assay on HCT-116 and in the assay with DU-145 were 43.2 µM (inactive) and 74.8 µM (inactive), respectively.

As for `Nc1c(C(=O)Nc2ccc([As](=O)(O)O)cc2)cnc2nnnn12`, the GI50 in the assay on EKVX is > 100 µM (inactive); in the assay on BT-549 it was > 100 µM (inactive); with HCT-15 it was greater than 100 µM; in the assay on SF-295, > 100 µM (inactive); in the assay on HL-60, > 100 µM (inactive); in the assay with HT-29 it was > 100 µM (inactive). Also, the GI50 in the assay with OVCAR-8, in the assay with CCRF-CEM, with NCI-H460, in the assay on RPMI-8226, with HCC 2998 and in the assay with NCI/ADR-RES was > 100 µM (inactive) throughout. Also, the GI50 with SW-620, in the assay on A549, in the assay on SK-OV-3, in the assay with PC-3, with OVCAR-5 and in the assay on NCI-H226 was > 100 µM (inactive) each time. The GI50 in the assay on HCT-116 and with DU-145 was > 100 µM (inactive) each time.

`Nc1nn2c(nc(N)c3c(N)n[nH]c32)c1/N=N\c1ccc(Br)cc1`: the GI50 with EKVX was > 100 µM (inactive); with BT-549 it was 2.92 µM (inactive); in the assay with HCT-15 it was greater than 91.8 µM; with SF-295, > 100 µM (inactive); in the assay on HL-60, 8.15 µM (inactive); in the assay with HT-29 it was 55.8 µM (inactive). The GI50 in the assay with OVCAR-8 is 21 µM (inactive); in the assay on CCRF-CEM, 2.1 µM (inactive); in the assay on NCI-H460, > 100 µM (inactive); in the assay on RPMI-8226, > 100 µM (inactive); in the assay with HCC 2998, > 100 µM (inactive); in the assay on NCI/ADR-RES, > 100 µM (inactive). The GI50 was 43.7 µM (inactive) with SW-620; > 100 µM (inactive) in the assay with A549; > 100 µM (inactive) with SK-OV-3; > 100 µM (inactive) in the assay on PC-3; 23.7 µM (inactive) in the assay with OVCAR-5; 55 µM (inactive) with NCI-H226. The GI50 with HCT-116 is 53.8 µM (inactive); in the assay on DU-145, > 100 µM (inactive).

On to `CN(C)c1ccc(C2ON=C(c3ccccc3)N2C23CC4CC(CC(C4)C2)C3)cc1` (stereo not given), for which the GI50 with EKVX is > 10 µM (inactive); in the assay on BT-549, > 10 µM (inactive); in the assay on HCT-15, greater than 10 µM; with SF-295 it was > 10 µM (inactive); with HL-60, 9.55 µM (inactive); in the assay on HT-29 it was > 10 µM (inactive). Further, the GI50 in the assay with OVCAR-8, with CCRF-CEM, with NCI-H460, with RPMI-8226, in the assay with HCC 2998 and with NCI/ADR-RES was > 10 µM (inactive) in each case. In addition, the GI50 in the assay with SW-620, in the assay with A549, with SK-OV-3, in the assay with PC-3, in the assay on OVCAR-5 and with NCI-H226 was > 10 µM (inactive) each time. Further, the GI50 in the assay on HCT-116 and in the assay with DU-145 was > 10 µM (inactive) throughout.
